Test results as given in paper PMC3761409 (Journal of molecular recognition : JMR, 2013).
No end group written: not given here.

Legend:
[1] = molecular target: T1, Human Bcl2 (residues 1-205) (Homo sapiens, UniProt P10415); assay: Isothermal titration calorimetry; format: binding; details: for Kd: SD
[2] = molecular target: T1, Human Bcl2 (residues 1-205); assay: ITC: effect of NaCl concentration on binding; details: Sodium phosphate buffer, NaCl 0-500mM, 25°C, pH 7
Bcl2 = Bcl2 (Homo sapiens, UniProt P10415); assay: In vitro binding of full-length Bad to Bcl2; details: unpublished observations
Chain of Bcl2 (P10415 whole entry): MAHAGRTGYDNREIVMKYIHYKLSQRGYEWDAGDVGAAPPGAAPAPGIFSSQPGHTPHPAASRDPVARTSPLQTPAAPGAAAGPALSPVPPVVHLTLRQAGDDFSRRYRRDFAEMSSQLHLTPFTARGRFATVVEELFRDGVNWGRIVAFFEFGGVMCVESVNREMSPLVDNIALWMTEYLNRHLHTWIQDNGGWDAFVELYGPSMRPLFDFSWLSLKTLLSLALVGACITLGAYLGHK

BclXL = BclXL (Homo sapiens, UniProt Q07817); assay: In vitro binding of full-length Bad to BclXL; details: unpublished observations
Chain of BclXL (Q07817 whole entry, species assumed): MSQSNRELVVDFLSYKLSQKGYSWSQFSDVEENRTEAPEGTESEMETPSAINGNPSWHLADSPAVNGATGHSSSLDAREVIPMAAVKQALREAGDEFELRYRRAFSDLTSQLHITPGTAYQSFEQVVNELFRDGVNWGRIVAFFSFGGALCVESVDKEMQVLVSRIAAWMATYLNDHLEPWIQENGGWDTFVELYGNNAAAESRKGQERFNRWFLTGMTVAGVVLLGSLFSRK

T1 sequence (P10415 1-205): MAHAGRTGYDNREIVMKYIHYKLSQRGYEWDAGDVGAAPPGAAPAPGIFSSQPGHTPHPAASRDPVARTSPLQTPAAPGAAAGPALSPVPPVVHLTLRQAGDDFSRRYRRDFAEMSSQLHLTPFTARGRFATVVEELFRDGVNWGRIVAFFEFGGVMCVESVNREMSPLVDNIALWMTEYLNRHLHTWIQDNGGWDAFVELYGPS

| Molecule | Kd [1] | effect of increasing NaCl concentration on the binding (Kd) to Bcl2 [2] | binding to Bcl2 under varied conditions ([1]; ITC, temperature, buffer or solution pH varied) | affinity of the full-length protein toward Bcl2 (Bcl2) | affinity of the full-length protein toward BclXL (BclXL) |
| --- | --- | --- | --- | --- | --- |
| SAAQLTAARLKALADELHQR [Hrk_G+4A] | 3840 ± 710 nM | – | – | – | – |
| QWAREIGAQLRRMADDLNAQ [Puma] | 370 ± 70 nM | little or negligible effect | – | – | – |
| QAEVQIARKLQCIADQFHRL [Bmf] | 300 ± 70 nM | little or negligible effect | – | – | – |
| WAAQRYGRELRRMSDEFVDS [Bad] | 4140 ± 800 nM | enhancement of between two-to-five folds | – | – | – |
| CC[C@H](C)[C@H](NC(=O)[C@H](C)NC(=O)[C@H](CC(C)C)NC(=O)[C@H](CCC(N)=O)NC(=O)[C@H](CCCNC(=N)N)NC(=O)CNC(=O)[C@@H](NC(=O)[C@H](CCC(N)=O)NC(=O)CNC(=O)[C@H](CCSC)NC(=O)[C@@H](NC(=O)[C@@H](N)CO)[C@@H](C)O)C(C)C)C(=O)N[C@H](C(=O)NCC(=O)N[C@@H](CC(=O)O)C(=O)N[C@@H](CC(=O)O)C(=O)N[C@H](C(=O)N[C@@H](CC(N)=O)C(=O)N[C@@H](CCCNC(=N)N)C(=O)N[C@@H](CCCNC(=N)N)C(=O)O)[C@@H](C)CC)[C@@H](C)CC [Bak] | 1300 ± 250 nM | largely independent of salt concentration | – | – | – |
| DIIRNIARHLAQVGDSMDRS [Bid] | 2100 ± 410 nM | largely independent of salt concentration | – | – | – |
| ELEVECATQLRRFGDKLNFR [Noxa] | – | – | did not observe the binding | – | – |
| ASTKKLSESLKRIGDELDSN [Bax] | 3100 ± 660 nM | enhancement of between two-to-five folds | – | – | – |
| EGSDALALRLACIGDEMDVS [Bik] | 3780 ± 790 nM | enhancement of between two-to-five folds | – | – | – |
| QWAREIGAQLRRMGDDLNAQ [Puma_A+4G] | 2120 ± 420 nM | – | – | – | – |
| CC(C)C[C@H](NC(=O)[C@H](C)NC(=O)[C@H](CCCCN)NC(=O)[C@H](CC(C)C)NC(=O)[C@H](CCCNC(=N)N)NC(=O)[C@H](C)NC(=O)[C@H](C)NC(=O)[C@@H](NC(=O)[C@H](CC(C)C)NC(=O)[C@H](CCC(N)=O)NC(=O)[C@H](C)NC(=O)[C@H](C)NC(=O)[C@@H](N)CO)[C@@H](C)O)C(=O)NCC(=O)N[C@@H](CC(=O)O)C(=O)N[C@@H](CCC(=O)O)C(=O)N[C@@H](CC(C)C)C(=O)N[C@@H](Cc1c[nH]cn1)C(=O)N[C@@H](CCC(N)=O)C(=O)N[C@@H](CCCNC(=N)N)C(=O)O [Hrk] | 25000 ± 8800 nM | enhancement of between two-to-five folds | – | – | – |
| full-length Bad: full-length Bad protein (Bcl2-associated death promoter) (protein, UniProt Q92934 1-168, looked up, full-length) MFQIPEFEPSEQEDSSSAERGLGPSPAGDGPSGSGKHHRQAPGLLWDASHQQEQPTSSSHHGGAGAVEIRSRHSSYPAGTEDDEGMGEEPSPFRGRSRSAPPNLWAAQRYGRELRRMSDEFVDSFKKGLPRPKSAGTATQMRQSSSWTRVFQSWWDRNLGRGSSAPSQ | – | – | – | poor affinity | poor affinity |
